For 1 molecule, IC50 results are on record in PMC6230393, “Enhancing TFEB-Mediated Cellular Degradation Pathways by the mTORC1 Inhibitor Quercetin” (Oxidative Medicine and Cellular Longevity, 2018).

In the assay the target is mTOR (Homo sapiens, UniProt P42345). Description: LanthaScreen TR-FRET in vitro kinase assay, purified mTOR (PV4753), GFP-4E-BP1 substrate, […] ATP, […] MnCl2. In kind it is biochemical.

As for `O=c1c(O)c(-c2ccc(O)c(O)c2)oc2cc(O)cc(O)c12` [quercetin, 3,3′,4′,5,7-pentahydroxyflavone], the IC50 is 7.8 µM.
